Reference: US7166310B2, “Stable extract from Hypericum perforatum L., method for the production thereof and its use as a topical medicament” (Dr. Willmar Schwabe GmbH & Co., priority 2000, dated 2007)
Values after ≈ are worked out from the molar mass of the structure shown. Where two headings read alike, the source gives them in different places.

Columns and labels:
[1] = tested on: Oleum Crotonis-ear-oedema; assay: Oleum Crotonis-ear-oedema model, ear weight; type: in vivo; details: 250 μg topically on the ear, mice, 6 hours
Procedure: (§1) The anti-phlogistic effects of hypericum extract according to the invention, also those of isolated ingredients, were tested in the Oleum Crotonis-ear-oedema model on male NRMI mice. After inducing a narcosis by the intra-peritonal injection of 60 mg/kg sodium-pento-barbital, the test substances were applied to the right ear in 10 μl acetone, whereas the left ear was treated with 10 μl acetone alone, as a control. 30 mins later, a local inflammation was triggered at the left ear by applying 50 μg Oleum Crotonis in 10 μl acetone. After 6 hours, the animals were sacrificed and inhibition of the inflammation reaction was quantified by weighing a sample of tissue drawn from both ears, using the following formula: [1−(GT/GL]×100; in the case of GT or GL, this deals with the difference in weight between the right and left ears of animals that have been treated with the test substance (GT), or only with the solvent (GL).
(§2) The results of the investigations after applying 250 μg of the test substance or 1000 μg of the extract according to the invention to the left ear in each case are summarised in the following table.

[2] = tested on: myelo-peroxidase (MPO), neutrophile granulocyte accumulation; assay: Oleum Crotonis-ear-oedema model, myelo-peroxidase in ear homogenates; type: in vivo; details: 250 μg topically on the ear, mice, 6 hours
Procedure: as §1
Inhibition of neutrophile granulocyte accumulations in inflamed tissue was obtained by determining myelo-peroxidase (MPO) in the ear homogenates. To this end, biopsy samples were recorded in 1 ml hexadecyl-trimethyl ammonium bromide (HTAB) buffers, homogenised with a glass homogeniser at 4° C. and then given ultrasound treatment for 10 seconds in a sonicator. After centrifuging at 4° C. with 3000 g for 10 mins, the supernatant was removed and retained for analysing at −70° C. Determining the MPO was performed in micro-titre dishes after adding H2O2 and the O-dianisidine-dihydrochloride indicator as a kinetic measure, over a period of 5 mins at 450 nm. Assessment was carried out against a standard curve with horseradish peroxidase, and was obtained as an mU enzyme activity per mg of tissue.
as §2

[3] = tested on: human keratinocytes (HaCaT cells); assay: Proliferation of human keratinocytes, 3H methyl-thymidine incorporation; type: cell-based; details: for inhibition at 10 µg/mL: Homo sapiens, HaCaT, read-out: Inhibition (proliferation of HaCaT cells)
Procedure: The effects of the extracts according to the invention and various ingredients on the proliferation of human keratinocytes were obtained by using the HaCaT cell-line. The cells (10,000–15,000) were disseminated in 200 μl DMEM with 5% foetal calf serum in 96-well F-form micro-titre dishes and incubated at 37° C. at absence of test substances in an incubator. Cell proliferation was determined by measuring the incorporation of ^3H methyl-thymidine (0.5 μCi/well) over the last 6 hours in the culture.

[4] = target: T1, 5α reductase (Homo sapiens, UniProt P18405); assay: Inhibition of 5α reductase in DU145 cells; type: cell-based
T1 construct: carried out on cells of the human prostate-cancer cell-line DU145; endogenous in cells; host or cells: DU145 (human prostate cancer cell line)
T1 sequence (P18405 1-259): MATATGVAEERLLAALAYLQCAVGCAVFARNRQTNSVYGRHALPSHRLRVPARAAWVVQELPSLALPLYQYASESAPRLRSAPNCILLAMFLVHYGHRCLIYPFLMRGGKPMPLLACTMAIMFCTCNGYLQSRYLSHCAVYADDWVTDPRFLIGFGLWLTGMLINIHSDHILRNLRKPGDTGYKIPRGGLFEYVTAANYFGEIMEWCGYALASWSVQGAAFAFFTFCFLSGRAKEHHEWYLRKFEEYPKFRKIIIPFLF

[5] = tested on: Methicillin-resistant SA; type: cell-based, Staphylococcus aureus
Procedure: (§3) Anti-microbial effects against various gram-positive bacteria were determined using the micro-dilution method. In the table below, we show the minimum inhibition concentration (MIC) and the minimum bactericide concentration (MBC) in each case.

[6] = tested on: Enterococcus durans; assay: MIC, micro-dilution method; type: cell-based
Procedure: as §3

[7] = tested on: Enterococcus fæcalis; assay: MIC, micro-dilution method; type: cell-based
Procedure: as §3

[8] = tested on: Enterococcus fæcium; assay: MIC, micro-dilution method; type: cell-based
Procedure: as §3

[9] = tested on: Listeria monocytogenes; assay: MIC, micro-dilution method; type: cell-based
Procedure: as §3

[10] = tested on: Staphylococcus aureus (SA); assay: MIC, micro-dilution method; type: cell-based
Procedure: as §3

[11] = tested on: Staphylococcus saprophyticus; assay: MIC, micro-dilution method; type: cell-based
Procedure: as §3

[12] = tested on: Streptococcus pyogenes; assay: MIC, micro-dilution method; type: cell-based
Procedure: as §3

[13] = tested on: DU145 cells; details: some 30 μg/ml
Procedure: Investigations of 5a reductase inhibition were carried out on cells of the human prostate-cancer cell-line DU145. The cells (250,000) were disseminated in 5 ml of RPMI 1640 medium with 10% foetal calf serum (FCS) in 6-well cell-culture dishes and incubated at 37° C. in an incubator. After four days, the medium against RPMI 1640 was replaced, with the addition of 10% charcoal-stripped FCS. On the following day, the test substances and ^14C testosterone were applied and another 18 hours later, supernatant of the cells were removed. The supernatant of the cells were mixed with 2.5 ml ethyl acetate and then centrifuged for 10 mins with 500 g at room temperature. The organic phase was removed and transferred over to a small glass tube. Extraction was then repeated by again applying 2.5 ml ethyl acetate. The combined organic phases were evaporated down at 37° C. under N2 fumigation until dry; the residue was taken into 50 μl ethyl acetate and then separated out twice on a silica-gel 60 TLC dish, with ethyl acetate/cyclohexane (1:1) as mobile phase. The testosterone metabolites so formed were localised with the aid of a linear analyser, and inhibition of 5α reductase was obtained at the dihydro-testosterone peak by comparison with the solvent control.

[14] = tested on: Herpes simplex 1 strain of virus (HSV-1); assay: HSV-1 "deactivation test" (virus titre on verocells); type: cell-based; details: for virus titre: virus applied 1.5×10^7 TCID50
[15] = tested on: Herpes simplex 1 strain of virus (HSV-1); assay: HSV-1 "inhibition test" (virostatic action in verocells); type: cell-based; details: Human alphaherpesvirus 1; HSV-1 3000 TCID50/ml, 48–72 hours
[16] = tested on: verocells; assay: Cyto-toxicity on verocells, MTT test; type: cell-based, ape; details: 7 days
Procedure: Various concentrations of the extract according to the invention and hypericin were incubated in the incubator for 7 days to assess the cyto-toxic effect of verocells. Determining of cyto-toxicity was performed using an MTT test following a published procedure (Cinatl J. jr; Cinatl, J; Rabenau, H, Gümel, H; Doerr, H. W; (1993); “In-vitro anti-human immuno-deficiency virus activity of 2′, 3 dideoxynucleotides and their effect on clonal growth of hæmopoietic cells from human bone-marrow”, Arzneimittel-Frsch./Drug Res. 43, 622–625).
Assessment of the cyto-toxic concentration (TC50) and the virus-inhibiting concentration (IC50) was performed using linear regression. To calculate the therapeutic index, the formula TC50/IC50 was applied.

[17] = DU-145, 30 μg/ml, DU145 cells, 18 hours, read-out: Inhibition of 5α reductase
[18] = DU-145, read-out: Inhibition of 5α reductase

Compound | Oedema inhibition [1] [%] | MPO inhibition [2] [%] | inhibition at 10 µg/mL ([3]; 10 μg/ml) [%] | inhibition at 30 µg/mL [4, 17] [%] | other results
O=c1cc(-c2ccc(O)c(-c3c(O)cc(O)c4c(=O)cc(-c5ccc(O)cc5)oc34)c2)oc2cc(O)cc(O)c12 [Amento-flavone] | 82 | 70 | 68 | -15 | 
Oc1ccccc1O [Catechol] | 36 | 41 |  | -15 | inhibition at 10 µg/mL [3]: 14%
O=C(/C=C/c1ccc(O)c(O)c1)O[C@@H]1C[C@](O)(C(=O)O)C[C@@H](O)[C@H]1O [Chlorogenic acid] | 14 | 16 | -9 | 3 | 
Oc1cc(O)c2c(c1)O[C@H](c1ccc(O)c(O)c1)[C@H](O)C2 [Epicatechol] | 1 | 45 | 13 | -6 | 
CC(C)=CCC[C@]1(C)[C@@H](CC=C(C)C)C[C@@]2(CC=C(C)C)C(=O)[C@]1(C(=O)C(C)C)C(=O)C(CC=C(C)C)=C2O [Hyperforin] | 65 | 62 |  |  | MIC [5]: 31.25 µg/mL (≈ 58.2 µM); MIC [6]: 125 µg/mL (≈ 233 µM); MIC [7]: 125 µg/mL (≈ 233 µM); MIC [8]: 125 to 250 µg/mL; MIC [9]: 15.6 to 31.25 µg/mL; MIC [10]: 62.5 µg/mL (≈ 116 µM); MIC [11]: 62.5 to 125 µg/mL; MIC [12]: 15.6 µg/mL (≈ 29.1 µM); cyto-toxicity [13]: cyto-toxic
Cc1cc(O)c2c(=O)c3c(O)cc(O)c4c5c(O)cc(O)c6c(=O)c7c(O)cc(C)c8c1c2c(c34)c(c78)c65 [Hypericin] | 6 | 48 | 100 |  | virus titre ([14]; 10 μg/ml): 4.7 × 10^6 TCID50; virus-deactivating action ([14]; 100 μg/ml): approx. 4 log10 stages; virus titre ([14]; 100 μg/ml): 4.7 × 10^3 TCID50; IC50 [15]: 2.2 µg/mL (≈ 4.36 µM); TC50 [16]: 74.3 µg/mL (≈ 147 µM); inhibition at 30 µg/mL [4, 18]: -24%
O=c1c(O[C@@H]2O[C@H](CO)[C@H](O)[C@H](O)[C@H]2O)c(-c2ccc(O)c(O)c2)oc2cc(O)cc(O)c12 [Hyperoside] | −27 | 39 | -8 | -1 | 
O=c1c(O[C@@H]2O[C@H](CO)[C@@H](O)[C@H](O)[C@H]2O)c(-c2ccc(O)c(O)c2)oc2cc(O)cc(O)c12 [Isoquercitrin] | −29 | 73 | 83 | -5 | 
O=c1cc(-c2ccc(O)c(O)c2)oc2cc(O)cc(O)c12 [Luteolin] | 70 | 91 | 92 | 42 | 
O=c1c(O)c(-c2cc(O)c(O)c(O)c2)oc2cc(O)cc(O)c12 [Myricetin] | 17 | 75 | 26 | 29 | 
O=c1c(O)c(-c2ccc(O)c(O)c2)oc2cc(O)cc(O)c12 [Quercetin] | 82 | 97 | -29 | 46 | 
C[C@@H]1O[C@@H](Oc2c(-c3ccc(O)c(O)c3)oc3cc(O)cc(O)c3c2=O)[C@H](O)[C@H](O)[C@H]1O [Quercitrin] | −26 | 23 |  |  | inhibition at 10 µg/mL [3]: 35%; inhibition at 30 µg/mL [4, 18]: -29%
C[C@@H]1O[C@@H](OC[C@H]2O[C@@H](Oc3c(-c4ccc(O)c(O)c4)oc4cc(O)cc(O)c4c3=O)[C@H](O)[C@@H](O)[C@@H]2O)[C@H](O)[C@H](O)[C@H]1O [Rutin] | 38 | 55 | 9 | -6 | 
Camphor oil | 91 | 96 |  |  | Inhibition (proliferation of HaCaT cells) ([3]; 10 μg/ml): 44%; Inhibition of 5α reductase ([4]; 30 μg/ml, DU145 cells, 18 hours): 12%
Hyperforin Na |  |  |  |  | Inhibition (proliferation of HaCaT cells) ([3]; 10 μg/ml): 97%; Inhibition of 5α reductase ([4]; 5 μg/ml, DU145 cells, 18 hours): 10%
